Data reported in ChEMBL document CHEMBL1155466, “Structure-activity relationships of 6-methyl-benzo[b]thiophene-2-carboxylic acid (1-[(S)-1-benzyl-4-[4-(tetrahydropyran-4-ylmethyl)piperazin-1-yl]butylcarbamoyl]cyclopentyl)amide, potent antagonist of the neurokinin-2 receptor” (J Med Chem, 2010).

Columns and labels:
Substance-K receptor = target: T1, Substance-K receptor (Homo sapiens, UniProt P21452); test: Displacement of [3H]neurokinin A from human NK2 receptor
T1 sequence (P21452 whole entry): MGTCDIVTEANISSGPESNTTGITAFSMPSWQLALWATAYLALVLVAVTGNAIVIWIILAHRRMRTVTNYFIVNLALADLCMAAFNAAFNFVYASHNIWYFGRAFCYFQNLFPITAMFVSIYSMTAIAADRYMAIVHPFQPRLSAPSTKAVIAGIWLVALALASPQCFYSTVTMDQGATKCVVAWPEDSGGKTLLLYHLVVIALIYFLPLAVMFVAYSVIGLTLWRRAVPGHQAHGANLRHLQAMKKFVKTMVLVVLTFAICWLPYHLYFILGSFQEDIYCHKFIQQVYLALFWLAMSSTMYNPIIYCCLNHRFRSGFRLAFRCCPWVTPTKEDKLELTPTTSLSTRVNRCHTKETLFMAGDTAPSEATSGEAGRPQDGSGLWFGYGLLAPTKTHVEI

[1] = target: T2, Substance-K receptor (Cavia porcellus) (UniProt Q64077); test: Antagonist activity at NK2 receptor in Dunkin-Hartley guinea pig colon smooth muscle assessed as inhibition of [beta-Ala8]NKA(4-10)-induced tissue contraction in presence of NK1 receptor antagonist SR-140333; assay type: functional, tissue-based
T2 sequence (whole entry): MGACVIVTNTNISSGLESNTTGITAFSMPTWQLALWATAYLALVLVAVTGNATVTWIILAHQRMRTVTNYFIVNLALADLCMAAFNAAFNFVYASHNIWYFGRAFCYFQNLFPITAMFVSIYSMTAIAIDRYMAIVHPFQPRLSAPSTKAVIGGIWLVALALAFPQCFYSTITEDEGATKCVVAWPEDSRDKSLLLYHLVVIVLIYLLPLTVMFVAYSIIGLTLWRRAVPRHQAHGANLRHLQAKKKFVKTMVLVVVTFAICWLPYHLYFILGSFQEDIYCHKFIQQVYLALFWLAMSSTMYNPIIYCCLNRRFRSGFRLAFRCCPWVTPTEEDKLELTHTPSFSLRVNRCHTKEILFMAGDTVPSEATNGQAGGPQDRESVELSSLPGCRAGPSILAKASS

Cavia porcellus = test: Inhibition of [beta-Ala8]NKA(4-10)-induced colonic contractions in Dunkin-Hartley guinea pig at 3 umol/kg, iv after 4 hrs relative to control; assay type: functional

Ki (Substance-K receptor) [nM]	pKb [1]	Structure (SMILES)	Imax (Cavia porcellus) [%]
0.398	8.2	Cc1ccc2cc(C(=O)NC3(C(=O)N[C@@H](CCCN4CCN(C(=O)c5cccn5C)CC4)Cc4ccccc4)CCCC3)sc2c1	100
0.316	7.9	Cc1ccc2cc(C(=O)NC3(C(=O)N[C@@H](CCCN4CCN(S(=O)(=O)N(C)C)CC4)Cc4ccccc4)CCCC3)sc2c1	80
2	7.8	Cc1ccc2cc(C(=O)NC3(C(=O)N[C@@H](CCCN4CCN(C=O)CC4)Cc4ccccc4)CCCC3)sc2c1	
0.251	8.4	Cc1ccc2cc(C(=O)NC3(C(=O)N[C@@H](CCCN4CCN(Cc5ccncc5)CC4)Cc4ccccc4)CCCC3)sc2c1	86
0.0794	7.9	Cl.N[C@@H](CCC(=O)N1CCN(CC2CCOCC2)CC1)Cc1ccccc1	99
0.631	7.8	Cc1ccc2cc(C(=O)NC3(C(=O)N[C@@H](CCCN4CCN(c5ccccn5)CC4)Cc4ccccc4)CCCC3)sc2c1	76
0.316	7.8	Cc1ccc2cc(C(=O)NC3(C(=O)N[C@@H](CCC(=O)N4CCC(N(C)C5CCOCC5)CC4)Cc4ccccc4)CCCC3)sc2c1	90
0.158	7.7	Cc1ccc2cc(C(=O)NC3(C(=O)N[C@@H](CCCN4CCN(Cc5cccs5)CC4)Cc4ccccc4)CCCC3)sc2c1	83
0.501	8.4	Cc1ccc2cc(C(=O)NC3(C(=O)N[C@@H](CCCN4CCN(S(=O)(=O)N5CCOCC5)CC4)Cc4ccccc4)CCCC3)sc2c1	97
1	7.8	Cc1ccc2cc(C(=O)NC3(C(=O)N[C@@H](CCCN4CCC(CN5CCOCC5)CC4)Cc4ccccc4)CCCC3)sc2c1	62
0.501	7.8	Cc1ccc2cc(C(=O)NC3(C(=O)N[C@@H](CCCN4CCC(N5CCOCC5)CC4)Cc4ccccc4)CCCC3)sc2c1	
1		Cc1ccc2cc(C(=O)NC3(C(=O)N[C@@H](CCCN4CCN(Cc5cnc[nH]5)CC4)Cc4ccccc4)CCCC3)sc2c1	
1.26	7.8	Cc1ccc2cc(C(=O)NC3(C(=O)N[C@@H](CCCN4CCC(N(C)C5CCOCC5)CC4)Cc4ccccc4)CCCC3)sc2c1	
	8	Cc1ccc2cc(C(=O)NC3(C(=O)N[C@@H](CCCN4CCN(Cc5c[nH]cn5)CC4)Cc4ccccc4)CCCC3)sc2c1	83
0.631	7.7	Cc1ccc2cc(C(=O)NC3(C(=O)N[C@H](CCCN4CCN(CC5CCOCC5)CC4)Cc4ccccc4)CCCC3)sc2c1	
0.316	7.2	CCOCCCN1CCN(CCC[C@@H](Cc2ccccc2)NC(=O)C2(NC(=O)c3cc4ccc(C)cc4s3)CCCC2)CC1	
	7.9	Cc1ccc2cc(C(=O)NC3(C(=O)N[C@@H](CCCC4CCN(CC5CCOCC5)CC4)Cc4ccccc4)CCCC3)sc2c1	67
2	7.6	Cc1ccc2cc(C(=O)NC3(C(=O)N[C@H](Cc4ccccc4)CN4CCN(CC5CCOCC5)CC4)CCCC3)sc2c1	
	6.9	Cc1ccc2cc(C(=O)NC3(C(=O)N[C@@H](COCCC4CCN(CC5CCOCC5)CC4)Cc4ccccc4)CCCC3)sc2c1	
15.8		Cc1ccc2cc(C(=O)NC3(C(=O)N[C@@H](CCN4CCN(CC5CCOCC5)CC4)Cc4ccccc4)CCCC3)sc2c1	
	8.1	Cc1ccc2cc(C(=O)NC3(C(=O)N[C@@H](CCCN4CCN(C(=O)C5CCOCC5)CC4)Cc4ccccc4)CCCC3)sc2c1	97
		CO/N=C(\N1CCOCC1)N1CCN(CCC[C@@H](Cc2ccccc2)NC(=O)C2(NC(=O)c3cc4ccc(C)cc4s3)CCCC2)CC1	100
0.794	8	CC/N=C(\N1CCOCC1)N1CCN(CCC[C@@H](Cc2ccccc2)NC(=O)C2(NC(=O)c3cc4ccc(C)cc4s3)CCCC2)CC1	
2	7.8	Cc1ccc2cc(C(=O)NC3(C(=O)N[C@@H](CCC(=O)N4CCC(N5CCOCC5)CC4)Cc4ccccc4)CCCC3)sc2c1	
